Tests used:
[1] = target: T1, PTPN2 (i.e., TC-PTP) (Homo sapiens, UniProt P17706); experiment: Phosphatase activity assay (DiFMUP substrate), PTPN2; assay type: biochemical; settings: compounds binned ≤1 uM or >1 uM
T1 sequence (P17706 1-415): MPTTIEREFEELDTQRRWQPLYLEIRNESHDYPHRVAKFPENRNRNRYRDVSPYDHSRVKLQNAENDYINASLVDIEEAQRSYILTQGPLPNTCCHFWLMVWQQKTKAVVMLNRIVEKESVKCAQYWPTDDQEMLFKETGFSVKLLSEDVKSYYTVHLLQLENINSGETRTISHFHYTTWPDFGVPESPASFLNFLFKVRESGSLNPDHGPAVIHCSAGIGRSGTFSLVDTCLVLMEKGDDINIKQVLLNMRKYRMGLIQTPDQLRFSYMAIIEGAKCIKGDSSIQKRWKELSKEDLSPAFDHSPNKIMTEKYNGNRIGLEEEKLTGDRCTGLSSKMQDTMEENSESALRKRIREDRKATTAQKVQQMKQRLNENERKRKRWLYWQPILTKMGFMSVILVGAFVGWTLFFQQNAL
In short: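 Using a Km-level DiFMUP substrate and 0.025 ng/ul PTPN2, phosphatase activity is tracked by DiFMU emission at 450 nm over about 15–30 minutes. Initial rates at ten inhibitor concentrations give IC50 by four-parameter fitting.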

[2] = target: T2, PTPN1 (i.e., PTP1B) (Homo sapiens, UniProt P18031); experiment: Phosphatase activity assay (DiFMUP substrate), PTP1B; assay type: biochemical; settings: compounds binned ≤1 uM or >1 uM
T2 sequence (P18031 1-435): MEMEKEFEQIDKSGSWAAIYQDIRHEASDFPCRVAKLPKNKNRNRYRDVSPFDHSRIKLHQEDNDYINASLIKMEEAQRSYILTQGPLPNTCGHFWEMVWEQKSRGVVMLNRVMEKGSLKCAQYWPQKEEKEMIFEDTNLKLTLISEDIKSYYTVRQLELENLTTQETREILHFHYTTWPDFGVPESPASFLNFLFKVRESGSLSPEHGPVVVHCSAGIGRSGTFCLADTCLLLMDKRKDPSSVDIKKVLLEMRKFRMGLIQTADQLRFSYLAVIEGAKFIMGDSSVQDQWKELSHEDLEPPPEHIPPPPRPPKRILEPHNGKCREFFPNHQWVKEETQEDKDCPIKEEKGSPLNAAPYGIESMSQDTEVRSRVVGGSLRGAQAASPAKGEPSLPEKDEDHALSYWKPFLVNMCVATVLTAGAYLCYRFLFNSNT
In short: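 First, serially diluted inhibitor is mixed about 2 minutes with enzyme in pH 7.5 HEPES/NaCl/EDTA/DTT/Tween-20 buffer. Next, DiFMUP is added at the enzyme's Km, approximately 45 μM for PTPN2. Finally, DiFMU appearance is read continuously at room temperature and rates are fitted for IC50.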

SMILES	IC50 [1]	IC50 [2]
CCOc1ccc(-c2ccc(O)c(N3CC(=O)NS3(=O)=O)c2F)cn1 [Compound 226, 5-(3-(6-ethoxypyridin-3-yl)-2-fluoro-6-hydroxyphenyl)-1,2,5-thiadiazolidin-3-one 1,1-dioxide]	≤ 1000 nM	≤ 1000 nM
Cn1cc(-c2ccc(O)c(N3CC(=O)NS3(=O)=O)c2F)cn1 [Compound 227, 5-(2-fluoro-6-hydroxy-3-(1-methyl-1H-pyrazol-4-yl)phenyl)-1,2,5-thiadiazolidin-3-one 1,1-dioxide]	≤ 1000 nM	≤ 1000 nM
O=C1CN(c2c(O)ccc(-c3cnn(CCC4CCOC4)c3)c2F)S(=O)(=O)N1 (stereo not shown) [Compound 228, 5-(2-fluoro-6-hydroxy-3-(1-(2-(tetrahydrofuran-3-yl)ethyl)-1H-pyrazol-4-yl)phenyl)-1,2,5-thiadiazolidin-3-one 1,1-dioxide]	≤ 1000 nM	≤ 1000 nM
NC(=O)Cn1nc(-c2ccc(O)c(N3CC(=O)NS3(=O)=O)c2F)cc1C1CC1 [Compound 229, 2-(5-cyclopropyl-3-(3-(1,1-dioxido-4-oxo-1,2,5-thiadiazolidin-2-yl)-2-fluoro-4-hydroxyphenyl)-1H-pyrazol-1-yl)acetamide]	≤ 1000 nM	≤ 1000 nM
O=C1CN(c2c(O)ccc(-c3cc(C(=O)N4CCC4)n[nH]3)c2F)S(=O)(=O)N1 [Compound 230, 5-(3-(3-(azetidine-1-carbonyl)-1H-pyrazol-5-yl)-2-fluoro-6-hydroxyphenyl)-1,2,5-thiadiazolidin-3-one 1,1-dioxide]	≤ 1000 nM	≤ 1000 nM
O=C1CN(c2c(O)ccc(-c3ccc(NS(=O)(=O)CC4CC4)cc3)c2F)S(=O)(=O)N1 [Compound 231, 1-cyclopropyl-N-(3′-(1,1-dioxido-4-oxo-1,2,5-thiadiazolidin-2-yl)-2′-fluoro-4′-hydroxy-[1,1′-biphenyl]-4-yl)methanesulfonamide]	≤ 1000 nM	≤ 1000 nM
CC(=O)N(C)C1CCC=C(c2ccc(O)c(N3CC(=O)NS3(=O)=O)c2F)C1 (stereo not shown) [Compound 232, N-(3′-(1,1-dioxido-4-oxo-1,2,5-thiadiazolidin-2-yl)-2′-fluoro-4′-hydroxy-2,3,4,5-tetrahydro-[1,1′-biphenyl]-3-yl)-N-methylacetamide]	≤ 1000 nM	≤ 1000 nM
O=C1CN(c2c(O)ccc(-c3cn(CC4CC4)nc3F)c2F)S(=O)(=O)N1 [Compound 233, 5-(3-(1-(cyclopropylmethyl)-3-fluoro-1H-pyrazol-4-yl)-2-fluoro-6-hydroxyphenyl)-1,2,5-thiadiazolidin-3-one 1,1-dioxide]	≤ 1000 nM	≤ 1000 nM
O=C1CN(c2c(O)ccc(-c3cnc(NS(=O)(=O)C4CC4)nc3)c2F)S(=O)(=O)N1 [Compound 234, N-(5-(3-(1,1-dioxido-4-oxo-1,2,5-thiadiazolidin-2-yl)-2-fluoro-4-hydroxyphenyl)pyrimidin-2-yl)cyclopropanesulfonamide]	≤ 1000 nM	≤ 1000 nM
O=C1CN(c2c(O)ccc(-c3nnc(C4CC4)[nH]3)c2F)S(=O)(=O)N1 [Compound 235, 5-(3-(5-cyclopropyl-4H-1,2,4-triazol-3-yl)-2-fluoro-6-hydroxyphenyl)-1,2,5-thiadiazolidin-3-one 1,1-dioxide]	≤ 1000 nM	≤ 1000 nM
CS(=O)(=O)Nc1ccc(-c2ccc(O)c(N3CC(=O)NS3(=O)=O)c2F)cc1 [Compound 236, N-(3′-(1,1-dioxido-4-oxo-1,2,5-thiadiazolidin-2-yl)-2′-fluoro-4′-hydroxy-[1,1′-biphenyl]-4-yl)methanesulfonamide]	≤ 1000 nM	≤ 1000 nM
Cn1cnc(-c2ccc(O)c(N3CC(=O)NS3(=O)=O)c2F)n1 [Compound 237, 5-(2-fluoro-6-hydroxy-3-(1-methyl-1H-1,2,4-triazol-3-yl)phenyl)-1,2,5-thiadiazolidin-3-one 1,1-dioxide]	≤ 1000 nM	≤ 1000 nM
O=C1CN(c2c(O)ccc(C3=CCN(S(=O)(=O)C4CC4)C3)c2F)S(=O)(=O)N1 [Compound 238, 5-(3-(1-(cyclopropylsulfonyl)-2,5-dihydro-1H-pyrrol-3-yl)-2-fluoro-6-hydroxyphenyl)-1,2,5-thiadiazolidin-3-one 1,1-dioxide]	≤ 1000 nM	≤ 1000 nM
O=C1CN(c2c(O)ccc(-c3cc(C4CC4)nn3CC3CC3)c2F)S(=O)(=O)N1 [Compound 239, 5-(3-(3-cyclopropyl-1-(cyclopropylmethyl)-1H-pyrazol-5-yl)-2-fluoro-6-hydroxyphenyl)-1,2,5-thiadiazolidin-3-one 1,1-dioxide]	≤ 1000 nM	≤ 1000 nM
O=C1CN(c2c(O)ccc(-c3ccn(CC4CC4)c3)c2F)S(=O)(=O)N1 [Compound 240, 5-(3-(1-(cyclopropylmethyl)-1H-pyrrol-3-yl)-2-fluoro-6-hydroxyphenyl)-1,2,5-thiadiazolidin-3-one 1,1-dioxide]	≤ 1000 nM	≤ 1000 nM
O=C1CN(c2c(O)ccc(-c3cn(C4CCC4)cn3)c2F)S(=O)(=O)N1 [Compound 241, 5-(3-(1-cyclobutyl-1H-imidazol-4-yl)-2-fluoro-6-hydroxyphenyl)-1,2,5-thiadiazolidin-3-one 1,1-dioxide]	≤ 1000 nM	≤ 1000 nM
O=C1CN(c2c(O)ccc(-c3cnn(C4CC5(CCC5)C4)c3)c2F)S(=O)(=O)N1 [Compound 242, 5-(2-fluoro-6-hydroxy-3-(1-(spiro[3.3]heptan-2-yl)-1H-pyrazol-4-yl)phenyl)-1,2,5-thiadiazolidin-3-one 1,1-dioxide]	≤ 1000 nM	≤ 1000 nM
COCCCc1cc(-c2ccc(O)c(N3CC(=O)NS3(=O)=O)c2F)[nH]n1 [Compound 243, 5-(2-fluoro-6-hydroxy-3-(3-(3-methoxypropyl)-1H-pyrazol-5-yl)phenyl)-1,2,5-thiadiazolidin-3-one 1,1-dioxide]	≤ 1000 nM	≤ 1000 nM
O=C1C=C(c2c(O)ccc(-c3cn(C4CC4)cn3)c2F)S(=O)(=O)N1 [Compound 244, 5-(3-(1-cyclopropyl-1H-imidazol-4-yl)-2-fluoro-6-hydroxyphenyl)isothiazol-3(2H)-one 1,1-dioxide]	≤ 1000 nM	≤ 1000 nM
O=C1CN(c2c(O)ccc(-c3cn(C4CC4)[nH]c3=O)c2F)S(=O)(=O)N1 [Compound 245, 5-(3-(1-cyclopropyl-3-oxo-2,3-dihydro-1H-pyrazol-4-yl)-2-fluoro-6-hydroxyphenyl)-1,2,5-thiadiazolidin-3-one 1,1-dioxide]	≤ 1000 nM	≤ 1000 nM
CC(C)CCn1cnc(-c2ccc(O)c(C3CC(=O)NS3(=O)=O)c2F)c1 (stereo not shown) [Compound 246, 5-(2-fluoro-6-hydroxy-3-(1-isopentyl-1H-imidazol-4-yl)phenyl)isothiazolidin-3-one 1,1-dioxide]	> 1000 nM	> 1000 nM
O=C1CN(c2c(O)ccc(-c3cc(C(F)(F)F)n[nH]3)c2F)S(=O)(=O)N1 [Compound 247, 5-(2-fluoro-6-hydroxy-3-(3-(trifluoromethyl)-1H-pyrazol-5-yl)phenyl)-1,2,5-thiadiazolidin-3-one 1,1-dioxide]	≤ 1000 nM	≤ 1000 nM
O=C1CN(c2c(O)ccc(-c3cc(N4CCC5(CCC5)C4)n[nH]3)c2F)S(=O)(=O)N1 [Compound 248, 5-(3-(3-(6-azaspiro[3.4]octan-6-yl)-1H-pyrazol-5-yl)-2-fluoro-6-hydroxyphenyl)-1,2,5-thiadiazolidin-3-one 1,1-dioxide]	≤ 1000 nM	≤ 1000 nM

From patent US20240398828A1, “HETERO-ATOM CONTAINING COMPOUNDS AND USES THEREOF” (Kumquat Biosciences Inc., priority 2021, published 2024)
